Biological target: LRRK2 (Homo sapiens (Human), UniProt Q5S007, G2019S)
Assay: In Vitro LRRK2 LabChip Assay (LRRK2 Ki)
Assay type: biochemical
Protocol: In Vitro LRRK2 LabChip Assay This assay was used to determine a compound's potency in inhibiting activity of LRRK2 by determining, Kiapp, IC50, or percent inhibition values. In a polypropylene plate, LRRK2, fluorescently-labeled peptide substrate, ATP and test compound were incubated together. Using a LabChip 3000 (Caliper Life Sciences), after the reaction the substrate was separated by capillary electrophoresis into two populations: phosphorylated and unphosphorylated. The relative amounts of each were quantitated by fluorescence intensity. LRRK2 Ki was determined according to the equation: […]))). Ki values in Table 4 and elsewhere herein are shown in μM. […] Substrate: 5[…] Non-binding plate: 384 well clear V-bottom polypropylene plates (Greiner cat #781280). ATP: 10 mM ATP (Cell Signaling cat #9804). Triton X-100: Triton X-100. Brij-35: Brij-35 (Pierce cat #20150). […] DMSO: DMSO (Sigma cat #34869-100 ML). […] Compound Plate Preparation: For serial dilutions, 34.6 μl DMSO was added to columns 3-24. For the assay controls, 37.5 μl DMSO was added to columns 1 and 2 of rows A and […]-028831 (Staurosporine) was added to columns 1 and 2, row B. […] A Precision instrument was used to perform 1:3.16 serial dilutions (“PLK_BM_serial_halflog”). ATP Preparation: ATP was diluted to 282.1 μM in Complete Kinase Buffer (final concentration was 130 μM). […] Assay Procedure: To a 50 μl polypropylene plate, 5 μl/well buffer/substrate was added by hand to Blank wells. A Biomek FX was used to start the kinase reaction (“PLK SAR 23 ATP”). […] 5 μl/well kinase/substrate in Assay Plate; The plate was incubated for 2 hours in the dark. Biomek FX was used to stop the kinase reaction (“PLK Stop”), and 10 μl/well Stop solution was added to the Assay Plate.

LRRK2, sequence (Q5S007 970-2527 G2019S): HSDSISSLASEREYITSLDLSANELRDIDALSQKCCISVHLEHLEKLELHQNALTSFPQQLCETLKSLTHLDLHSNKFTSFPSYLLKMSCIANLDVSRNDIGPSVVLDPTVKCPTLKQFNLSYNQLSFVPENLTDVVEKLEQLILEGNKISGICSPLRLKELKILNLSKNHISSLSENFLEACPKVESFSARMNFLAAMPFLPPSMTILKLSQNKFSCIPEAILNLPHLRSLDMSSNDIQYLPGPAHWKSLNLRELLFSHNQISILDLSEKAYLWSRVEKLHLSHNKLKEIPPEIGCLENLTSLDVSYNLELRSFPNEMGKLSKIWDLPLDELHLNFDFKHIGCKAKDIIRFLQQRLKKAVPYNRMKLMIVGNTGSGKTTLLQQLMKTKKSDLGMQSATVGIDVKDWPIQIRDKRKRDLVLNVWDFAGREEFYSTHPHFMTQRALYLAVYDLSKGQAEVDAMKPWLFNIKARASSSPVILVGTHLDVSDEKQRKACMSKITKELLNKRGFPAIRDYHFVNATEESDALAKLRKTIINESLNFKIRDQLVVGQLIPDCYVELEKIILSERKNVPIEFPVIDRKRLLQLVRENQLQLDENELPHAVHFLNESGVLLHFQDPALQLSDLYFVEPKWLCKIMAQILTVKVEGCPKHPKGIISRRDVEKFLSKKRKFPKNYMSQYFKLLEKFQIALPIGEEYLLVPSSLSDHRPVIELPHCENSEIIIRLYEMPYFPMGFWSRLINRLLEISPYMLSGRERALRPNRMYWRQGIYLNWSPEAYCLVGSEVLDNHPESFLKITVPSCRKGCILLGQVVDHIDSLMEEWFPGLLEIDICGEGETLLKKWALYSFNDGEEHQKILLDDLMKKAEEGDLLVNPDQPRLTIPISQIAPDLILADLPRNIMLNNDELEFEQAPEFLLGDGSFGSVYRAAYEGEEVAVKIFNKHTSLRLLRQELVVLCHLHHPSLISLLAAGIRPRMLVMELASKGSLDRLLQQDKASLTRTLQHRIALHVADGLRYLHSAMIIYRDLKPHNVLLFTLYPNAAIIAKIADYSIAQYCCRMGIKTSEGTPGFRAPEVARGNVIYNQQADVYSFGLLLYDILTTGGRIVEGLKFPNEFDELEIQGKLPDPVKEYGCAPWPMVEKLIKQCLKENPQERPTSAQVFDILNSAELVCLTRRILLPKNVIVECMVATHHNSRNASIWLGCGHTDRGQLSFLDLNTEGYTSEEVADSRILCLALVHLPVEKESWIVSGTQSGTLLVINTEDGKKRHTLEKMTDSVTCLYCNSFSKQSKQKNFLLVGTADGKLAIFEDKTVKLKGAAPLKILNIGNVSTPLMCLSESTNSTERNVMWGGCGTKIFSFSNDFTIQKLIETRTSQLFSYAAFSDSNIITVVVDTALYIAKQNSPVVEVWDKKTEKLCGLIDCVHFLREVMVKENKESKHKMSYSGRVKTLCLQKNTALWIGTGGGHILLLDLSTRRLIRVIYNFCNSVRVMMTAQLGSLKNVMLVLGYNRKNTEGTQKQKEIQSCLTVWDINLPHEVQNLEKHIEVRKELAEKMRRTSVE

| SMILES | Ki [nM] |
| --- | --- |
| CNc1nc(Nc2ccc(-c3nnn[nH]3)cc2Cl)ncc1C(F)(F)F [Compound 1, N2-(2-chloro-4-(2H-tetrazol-5-yl)phenyl)-N4-methyl-5-(trifluoromethyl) pyrimidine-2,4-diamine] | 3 |
| CNc1nc(Nc2ccc(-c3nnnn3C)cc2Cl)ncc1C(F)(F)F [Compound 2, N2-(2-chloro-4-(1-methyl-1H-tetrazol-5-yl)phenyl)-N4-methyl-5-(trifluoromethyl) pyrimidine-2,4-diamine] | 7 |
| CNc1nc(Nc2ccc(-c3nnn(C)n3)cc2Cl)ncc1C(F)(F)F [Compound 3, N2-(2-chloro-4-(2-methyl-2H-tetrazol-5-yl)phenyl)-N4-methyl-5-(trifluoromethyl) pyrimidine-2,4-diamine] | 18 |
| CNc1nc(Nc2ccc(-n3cncn3)cc2OC)ncc1C(F)(F)F [Compound 4, N2-(2-methoxy-4-(1H-1,2,4-triazol-1-yl)phenyl)-N4-methyl-5-(trifluoromethyl) pyrimidine-2,4-diamine] | 3 |
| CNc1nc(Nc2ccc(-c3cnn(C)c3)cc2OC)ncc1C(F)(F)F [Compound 5, N2-(2-methoxy-4-(1-methyl-1H-pyrazol-4-yl)phenyl)-N4-methyl-5-(trifluoromethyl) pyrimidine-2,4-diamine] | 4 |
| CNc1nc(Nc2cc(F)c(-c3nc(C)no3)cc2OC)ncc1C(F)(F)F [Compound 6, N2-(5-fluoro-2-methoxy-4-(3-methyl-1,2,4-oxadiazol-5-yl)phenyl)-N4-methyl-5-(trifluoromethyl) pyrimidine-2,4-diamine] | 32 |
| CNc1nc(Nc2cc(OC)c(-c3nnc(C)o3)cc2Cl)ncc1C(F)(F)F [Compound 7, N2-(2-chloro-5-methoxy-4-(5-methyl-1,3,4-oxadiazol-2-yl)phenyl)-N4-methyl-5-(trifluoromethyl) pyrimidine-2,4-diamine] | 8 |
| CNc1nc(Nc2ccc(-c3cncn3C)cc2OC)ncc1C(F)(F)F [Compound 8] | 2 |
| CNc1nc(Nc2ccc(-c3nnnn3C)cc2OC)ncc1Cl [Compound 10, 5-chloro-N^2-(2-methoxy-4-(1-methyl-1H-tetrazol-5-yl)phenyl)-N^4-methylpyrimidine-2,4-diamine] | 7 |
| CNc1nc(Nc2cc(OC)c(-c3cnnn3C)cc2Cl)ncc1C(F)(F)F [Compound 11, N^2-(2-chloro-5-methoxy-4-(1-methyl-1H-1,2,3-triazol-5-yl)phenyl)-N^4-methyl-5-(trifluoromethyl) pyrimidine-2,4-diamine] | 4 |
| CNc1nc(Nc2ccc(-c3cnoc3)cc2OC)ncc1Cl [Compound 14, 5-chloro-N^2-(4-(isoxazol-4-yl)-2-methoxyphenyl)-N^4-methylpyrimidine-2,4-diamine] | 15 |
| CNc1nc(Nc2ccc(-c3nccn3C)cc2OC)ncc1Cl [Compound 15, 5-chloro-N^2-(2-methoxy-4-(1-methyl-1H-imidazol-2-yl)phenyl)-N^4-methylpyrimidine-2,4-diamine] | 7 |
| CNc1nc(Nc2ccc(-c3cncn3C)cc2OC)ncc1Cl [Compound 16, 5-chloro-N2-(2-methoxy-4-(1-methyl-1H-imidazol-5-yl)phenyl)-N4-methylpyrimidine-2,4-diamine] | 2 |
| CNc1nc(Nc2ccc(-c3cnnn3C)cc2OC)ncc1C(F)(F)F [Compound 17, N^2-(2-methoxy-4-(1-methyl-1H-1,2,3-triazol-5-yl)phenyl)-N^4-methyl-5-(trifluoromethyl) pyrimidine-2,4-diamine] | 2 |
| CNc1nc(Nc2ccc(-c3nnn(C)n3)cc2OC)ncc1C(F)(F)F [Compound 18, N^2-(2-methoxy-4-(2-methyl-2H-tetrazol-5-yl)phenyl)-N^4-methyl-5-(trifluoromethyl) pyrimidine-2,4-diamine] | 10 |
| CNc1nc(Nc2cc(OC)c(-c3nccn3C)cc2Cl)ncc1C(F)(F)F [Compound 19, N^2-(2-chloro-5-methoxy-4-(1-methyl-1H-imidazol-2-yl)phenyl)-N^4-methyl-5-(trifluoromethyl) pyrimidine-2,4-diamine] | 3 |

Source: patent US8791130B2, “Aminopyrimidine derivatives as LRRK2 modulators” (Genentech, Inc., priority 2011, dated 2014)
